Experiments:
[1] = tested on: aged WT mice; test: Systolic blood pressure, body weight and cardiac hypertrophy in aged WT mice after chronic IRAP inhibition; type: in vivo, mouse
Experimental: There are 8 different sets of in vivo experiments in this study: • A) Phenotypic characterisation of the heart and blood vessels in global IRAP knockout mice and their WT controls treated for 4 weeks with Angiotensin (Ang) II (800 ng/kg/min; s.c.) where mouse hearts and blood vessels were compared to tissue obtained from young WT and IRAP^−/− mice treated with saline. • B) Prevention of Ang II-induced changes in the cardiovascular system following IRAP inhibitor treatment. In the prevention model, WT mice were treated with Ang II (800 ng/kg/min; s.c.)±the IRAP inhibitor (HFI-419; 500 ng/kg/min for 28 days) or HFI-vehicle (1 DMSO:3 HBC). • C) Phenotypic characterisation of the aged heart, kidney and blood vessels in the global IRAP knockout mice where aged WT and IRAP^−/− mouse hearts, kidneys and blood vessels were compared to tissue obtained from young WT and IRAP^−/− mice. • D) Reversal of the age-induced changes in the cardiovascular system following IRAP inhibitor treatment. In the reversal model, aged WT mice were treated with either saline, IRAP inhibitor (HFI-419 at 500 ng/kg/min; compound 1 at 500 ng/kg/min; compound 2 at 50 ng/kg/min) or HFI-vehicle (1 DMSO: 3 HBC) for 4 weeks. • E) Prevention of ischemic-reperfusion injury in isolated hearts taken from aged global IRAP knockout mice and aged IRAP inhibitor (HFI-419 at 500 ng/kg/min; s.c.) treated WT mice compared to age-matched vehicle-treated (1 DMSO:3 HBC; s.c.) WT controls. • F) Phenotypic characterization of cardiac function using echocardiography in the aged global IRAP knockout mice compared to aged and young WT mice. • G) Phenotypic characterization of liver steatosis in IRAP knockout mice in a high fat diet (HFD) model. • H) Reversal of the salt-induced fibrosis in the liver following IRAP inhibitor treatment.
All mice which underwent surgery were anaesthetized with Isoflurane (Isorrane) (5% induction and 2.5% maintenance) and an incision made in the midscapular region through which osmotic minipumps (Alzet model 2004, Alza Corp) were inserted for subcutaneous drug administration. The incision area was sutured with 6/0 DY silk (Dynek Pty Ltd) and antibiotic powder applied (Cicatrin, Pfizer) followed by intramuscular injection of the analgesic Cartrophen (0.1 ml of a 1.5 mg/ml stock solution; Biopharm Australia). Systolic blood pressure (SBP) was measured fortnightly using non-invasive tail-cuff plethysmography apparatus (MC4000 Blood Pressure Analysis System, Hatteras Instrument Inc) before drug treatment (week 0), at week 2 of treatment and end of treatment (week 4). At the end of drug treatment, body weight of mice was recorded. Mice were anaesthetized using Isoflurane inhalation and killed by cervical dislocation. Organs (heart, aorta, kidneys, brain, blood and tibia) were collected, with heart and aorta being dissected appropriately as described below. All organs were then snap frozen in liquid nitrogen, and stored at −80° C. if they were not used for vascular reactivity studies conducted on the day mice were killed.
Ventricular weight (VW) was compared to the body weight (BW) as a ratio of VW:BW (mg/g), as well as comparison of VW to tibial length (TL) in as a ratio of VW:TL (mg/mm) respectively. […] The average of 100 cardiomyocytes per heart section was performed under 60× magnification and analyzed using Image J.

[2] = tested on: livers of WT mice on high salt diet; test: High salt diet-induced liver fibrosis reversal model (Masson's trichrome); type: in vivo, mouse; settings: WT mice on 5% NaCl diet 8 weeks, FIG. 28
Experimental: Male C57BL/6J wild type (WT) mice aged approximately 4 to 6 months weighing 30-40 grams were obtained from Monash Animal Research Laboratory. Animals were housed in the Animal House in the Department of Pharmacology, Monash University, in standard cages where they were initially maintained on a normal diet. The housing was maintained at roughly 21° C.±5° C. with mice exposed to a 12 hour light/dark cycle, and access to food and water ad libitum. Experimental procedures undertaken were approved and certified by the School of Biomedical Sciences (SOBS) Animal Ethics Committee of Monash University (2013/118).
A high-salt diet (5% salt) model is a clinically relevant and disease-reversal model which can replicate the high salt intake by humans which is currently a growing problem in the developed countries. High salt intake induces changes in the cardiovascular system and induces remodelling and fibrosis in the heart and liver. […]
Quantification of liver fibrosis was performed using images captured with the Aperio scanner (Monash Histology Platform, Monash University), with ×5 magnification. […] Percentage of interstitial and perivascular collagen was analysed and quantified using ImageJ 1.48 software (Java, NIH), and the percentage from 5 random fields of view were averaged for final percentage of collagen for that particular animal. […]

## CCOC(=O)C1=C(NC(C)=O)Oc2cc(O)ccc2C1c1cccnc1 (stereo not shown) [HFI-419]
[1]; chronic (4 week) HFI-419, FIG. 16a
  systolic blood pressure, SBP: no significant effect
[1]; chronic (4 week) HFI-419, FIG. 16b
  body weight: no significant effect
[1]; chronic (4 week) HFI-419, FIG. 16c
  ventricular weight to body weight ratio, VW:BW: no significant effect
[1]; chronic (4 week) HFI-419, FIG. 16e
  cardiomyocyte cross-sectional area (H&E): no effect
[1]; chronic (4 week) HFI-419, FIG. 16d
  ventricular weight to tibial length ratio, VW:TL: no significant effect
[2]; HFI-419 0.72 mg/kg/d s.c. for last 4 weeks
  HSD-induced collagen deposition in liver (Masson's trichrome): significantly reversed HSD-induced collagen deposition to the same level seen in mice fed a normal chow diet
[2]; HFI-419 for last 4 weeks
  indicators of steatosis in the liver: markedly reduced
